PMC10065799, “High-throughput profiling of sequence recognition by tyrosine kinases and SH2 domains using bacterial peptide display” (eLife, 2023)

T1: c-Abl kinase domain (Mus musculus, UniProt P00520)
T1 sequence (P00520 242-493 limits assumed): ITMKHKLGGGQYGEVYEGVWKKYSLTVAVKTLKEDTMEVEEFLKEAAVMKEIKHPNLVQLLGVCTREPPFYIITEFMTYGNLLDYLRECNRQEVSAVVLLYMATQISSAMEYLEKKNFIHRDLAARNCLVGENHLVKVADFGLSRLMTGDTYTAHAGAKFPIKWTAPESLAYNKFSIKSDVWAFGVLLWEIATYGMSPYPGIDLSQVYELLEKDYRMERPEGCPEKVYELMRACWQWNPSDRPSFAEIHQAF


Experiments:
c-Src kinase domain [1] = biological target: T2, c-Src kinase domain (Homo sapiens, UniProt P12931); assay: pTyr-Var library bacterial peptide display kinase screen (enrichment scores); type: biochemical; details: sheet "Src";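 further: log2 fold change in enrichment of variant over reference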
Fer kinase domain = assay: as above; type: biochemical, mouse; details: sheet "Fer"
EPHB1 kinase domain = assay: as above; type: biochemical, human; details: for Screen: sheet EPHB1, effect of the variant peptide relative to its reference peptide in the pTyr-Var library screen (enrichment scores); for Screen (variant relative to reference peptide, measured in the pTyr-Var library screen): sheet "EPHB1", variant seq vs reference seq, bacterial peptide display enrichment
EPHB2 kinase domain = assay: as above; type: biochemical, human; details: sheet EPHB2;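 further: log2 fold change in enrichment of variant over reference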
c-Abl kinase domain = biological target: T1, c-Abl kinase domain; assay: as above; type: biochemical; details: sheet "Abl"; effect of variant peptide relative to its reference peptide in pTyr-Var library screen (enrichment);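 further: log2 fold change in enrichment of variant over reference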
c-Src kinase domain [2] = biological target: T2, c-Src kinase domain; assay: RP-HPLC assay to measure peptide phosphorylation kinetics; type: biochemical; details: purified peptide substrate
c-Src kinase domain [3] = biological target: T2, c-Src kinase domain; assay: ADP-Quest continuous fluorimetric kinase assay (Michaelis-Menten parameters and initial rates); type: biochemical
Description: A fluorescence-based assay from Eurofins (ADP Quest) was used to measure the Michaelis-Menten kinetic parameters for phosphorylation of the consensus peptides by purified tyrosine kinase domains. In this assay, ADP production as a result of kinase activity is coupled to the production of resorufin, a fluorophore that emits signal at 590 nm. For all experiments, the assay reactions were set up as described in the provided assay kit protocol, in a 384 well plate format. The peptide solutions were serially diluted in 100 mM Tris, pH 8.0, and the kinases were diluted to 50 nM in buffer (10 mM HEPES, 100 mM NaCl, 1 mM TCEP, 5 mM MgCl2, 10% (v/v) glycerol). The final reaction mixtures contained 10 nM of kinase with 100 μM of ATP. Reactions were initiated with the addition of 1 mM ATP into a 50 μL reaction mixture for a final concentration of 100 μM ATP. Phosphorylation reaction progress was monitored by measuring fluorescence at excitation 530 nm and emission 590 nm every 2 min at 37 °C on a plate reader (BioTek Synergy Neo 2). The fluorescence units (RFU) were converted to μM ADP by comparison to a standard curve, and the initial rates were extracted from the linear regime of the reaction progress curves. Initial rates were also measured for samples containing each kinase but lacking a peptide substrate, to account for background ATP hydrolysis. This background rate was subtracted from the rates measured in the presence of peptide. The subtracted rates were plotted as a function of substrate concentration and fit to the Michaelis-Menten equation to extract kcat and KM values.

[4] = biological target: human c-Src kinase domain (residues 260-528) (human) (UniProt P12931)
[5] = variant peptide versus its reference peptide in the pTyr-Var library screen
[6] = value of the variant peptide against its reference peptide in the pTyr-Var library screen with Fer
[7] = effect of variant peptide relative to its reference peptide in the pTyr-Var library screen (enrichment scores)
[8] = variant peptide relative to its reference peptide, pTyr-Var library screen enrichment
[9] = effect of the variant peptide relative to its reference peptide in the pTyr-Var library screen
[10] = effect of the variant relative to its reference peptide in the pTyr-Var library screen
[11] = ADP-Quest assay, c-Src kinase domain 10 nM, 100 μM ATP, 37 °C, three to five replicates, error = standard error of global Michaelis-Menten fit

Molecule	Screen (c-Src kinase domain [1]; [5])	Screen (Fer kinase domain; [6])	Screen (EPHB1 kinase domain)	Screen (EPHB2 kinase domain; [7])	other results
PSAELYSFALP [PDGFRB_Y716_N718Y_YF]	2.409	1.182	2.14	2.567	
ADARMYGVHPW [PLP1_Y207_L210H]	-0.8602			-2.321	
LDVGEYCVPRG [BEX1_Y43_A40V]			-0.3957	-0.4602	
KAPPTYDNVLQ [CYP3A4_Y347_T349N]		-0.1979	-0.1539	-1.141	
LTERGYSFTTK [ACTG1_Y198_T203K]		1.86	1.554	1.886	
KELALYDENWF [RPS19_Y48_P47L]			4.03	4.277	Screen (Fer kinase domain; [8]): 3.889
TSSAVYMNLAS [GATAD2B_Y317_I316V]		-2.177	-2.461	-2.447	Screen (c-Src kinase domain [1]; [9]): -0.9997
QNTGFYFDLFG [PTPN11_Y62_D61Y_YF]	-1.182		-3.875	-4.029	
DLHGIYQKLVI [TTN_Y21998_R21995H]	0.02812				Screen (c-Abl kinase domain): -2.013; Screen (Fer kinase domain; [8]): 0.5861; Screen (variant relative to reference peptide, measured in the pTyr-Var library screen) (EPHB1 kinase domain): 1.244; Screen (EPHB2 kinase domain; [10]): 1.178
MARDIYQASFF [LTK_Y672_R673Q_YF]		3.102	2.318	1.961	Screen (c-Src kinase domain [1]; [9]): 3.363
HKDNNYISMWF [PAPOLG_Y432_V433I]		-1.378	-1.294	-1.118	
PLFGEYFTLQI [TP53_Y327_D324Y_YF]	1.11				Screen (variant relative to reference peptide, measured in the pTyr-Var library screen) (EPHB1 kinase domain): 1.054; Screen (EPHB2 kinase domain; [10]): 0.9055
NSNSDYVDILP [SH2D1B_Y127_V130I]				0.0762	Screen (variant relative to reference peptide, measured in the pTyr-Var library screen) (EPHB1 kinase domain): -0.2012
Ac-SGDINYGQFAQ-NH2 [PLCG1_Y210_T209N, pTyr-Var library variant phosphosite peptide]	-3.177				Phosphorylation Rate (c-Src kinase domain [2]): 0.307 s⁻¹
PLDGEYFTLPI [TP53_Y327_Q331P]	1.231				Screen (Fer kinase domain; [8]): 0.4845; Screen (variant relative to reference peptide, measured in the pTyr-Var library screen) (EPHB1 kinase domain): 3.664; Screen (EPHB2 kinase domain; [10]): 3.847
CEQELYSQLVF [WAS_Y102_W97C_YF]	-0.1333				Screen (c-Abl kinase domain): -3.187; Screen (Fer kinase domain; [8]): -0.3985; Screen (variant relative to reference peptide, measured in the pTyr-Var library screen) (EPHB1 kinase domain): -2.23; Screen (EPHB2 kinase domain; [10]): -2.338

Molecule	Screen (c-Src kinase domain [1]; [5])	Screen (Fer kinase domain; [6])	Screen (EPHB1 kinase domain)	Screen (EPHB2 kinase domain; [7])	other results
QTPVLYAMLFH [MPZ_Y220_D224Y_YF]		-0.58	-0.7178	-1.088	Screen (c-Src kinase domain [1]; [9]): -0.1434
LPHVIYCRLWC [SMAD2_Y128_R133C]	1.251			1.893	Screen (variant relative to reference peptide, measured in the pTyr-Var library screen) (EPHB1 kinase domain): 2.05
SMEGLYSSAQD [CLIC5_Y111_T114A]		0.3754	-0.2291	-0.2512	Screen (c-Src kinase domain [1]; [9]): 0.03653
ISKTWYSAEQF [CD207_Y217_P213S]			-0.7306	-0.7343	
HAVFIYDICHV [TWNK_Y508_V507I_YF]	-0.8811				Screen (Fer kinase domain; [8]): 0.388; Screen (variant relative to reference peptide, measured in the pTyr-Var library screen) (EPHB1 kinase domain): 1.032; Screen (EPHB2 kinase domain; [10]): 1.461
FGSIMYEFVGK [SLC18A1_Y251_V249I]	-1.273			-1.759	Screen (Fer kinase domain; [8]): -0.674; Screen (variant relative to reference peptide, measured in the pTyr-Var library screen) (EPHB1 kinase domain): -1.716
LDAFIYNAAVL [GRIN2A_Y730_D731N]		-3.433	-1.471	-1.324	Screen (c-Src kinase domain [1]; [9]): -1.489
VATRWYWSPEL [CDKL5_Y177_R178W]			3.423	2.978	
PLDGEYFILQI [TP53_Y327_T329I]	-0.4119				Screen (variant relative to reference peptide, measured in the pTyr-Var library screen) (EPHB1 kinase domain): 0.4645; Screen (EPHB2 kinase domain; [10]): 0.5203
FAELVYTVFWH [ASS1_Y322_G324V]		-0.2764	0.03348	0.0379	Screen (c-Src kinase domain [1]; [9]): 0.03298
EPFELYCEMGS [CBL_Y371_Q367P_YF]			-0.3443	-0.2507	
GNLLIYTEFGN [HGD_Y166_K171N]			0.6139	0.7326	Screen (c-Src kinase domain [1]; [9]): -0.3322
IMNLLYHVVGW [GBA_Y412_T408M]		-0.4668	-0.2669	-0.4774	Screen (c-Src kinase domain [1]; [9]): 0.1521
Ac-GPDEPIYEWWWIKKKG-NH2 [Fer Consensus, Fer consensus substrate peptide from X5-Y-X5 screen]					Km (c-Src kinase domain [3]; [11]): 8 ± 4 µM; kcat (c-Src kinase domain [3]; [11]): 0.4±0.1 s^–1; phosphorylation of consensus peptide by c-Src (initial rate relative to cognate consensus) (c-Src kinase domain [3]; low concentration: peptide 20 μM, kinase 10–50 nM, Figure 2—figure supplement 2): significant off-target activity
Ac-GPDEPIYEWWWIKKKG-NH2 [Fer Consensus peptide Ac-…-NH2]					KM (μM) of phosphorylation, Michaelis-Menten analysis, ADP-Quest assay [4]: 8 µM
